Assays:
[1] = test system: adult citrus red mites (Panonychus citri Mcgregor); assay: Glass slide method, mortality of adult mites (Table 7); type: in vivo
Procedure: By using the glass slide method, the effects of the 1500-fold diluted solution and the 3000-fold diluted solution of the acaricide prepared in embodiment 3, the 1500-fold diluted solution of the ethoxy-modified trisiloxane, and the 1500-fold diluted solution of the solid sodium dioctyl sulfosuccinate prepared in embodiment 1 on the adult citrus red mites (Panonychus citri Mcgregor) were tested. Each treatment group had 50 citrus red mites, and the measurement was repeated 4 times, with water as a control.

mites = assay: Acaricidal effect of ethoxy-modified trisiloxane alone (statement in summary); conditions: content 0.667 g/L to 1.0 g/L

Compound | Mortality after 10 minutes ([1]; in vivo) [cC %] | Mortality after 72 hours ([1]; in vivo) [cC %] | damage to plants (mites) | acaricidal rate for 72 hours (mites; high concentration) | Mortality after 10 minutes ([1]; 1500× dilution, 10 minutes after spraying) [dD %] | Mortality after 72 hours ([1]; 1500× dilution, 72 hours after spraying) [dD %]
CCCCCCCCOC(=O)CC(C(=O)OCCCCCCCC)S(=O)(=O)O.[Na] (stereo not drawn) [sodium dioctyl sulfosuccinate] | 20.35 | 62.45 | – | – | – | –
ethoxy-modified trisiloxane | – | – | serious pesticide damage | about 30% | 15.42 | 28.84

Source: US11528908B2, “Acaricide and application thereof” (priority 2018, dated 2022)
